Assay results from ChEMBL document CHEMBL5724558, “Image-based profiling of drug vulnerabilities in CRC organoids” (2024).
Values joined by “and” are separate entries in the source; they are usually repeats but may differ in a detail not shown here. Equal values may be shown once.

Legend:
Assay type in all cases: functional, Homo sapiens
Parameters in all cases: dose or concentration left out as unconfirmed
[1] = system: Colon cancer organoid; experiment: (§1) Image-based profiling of donated chemical probes and chemogenomic kinase set in O06 CRC organoid. Image analysis is performed on the sum area metric, and the data were normalized to the DMSO control. After imaging the organoid viability is measured using the OneGloEX Luciferase Assay System. The normalized viability data and sum area are reported.
[2] = system: Colon cancer organoid; experiment: as §1, with “O09” for “O06”
[3] = system: Colon cancer organoid; experiment: as §1, with “O21” for “O06”

SMILES	Cell Viability ([1]; Replication number 1)	Cell Viability ([1]; Replication number 2)	Cell Viability ([2]; Replication number 1)	Cell Viability ([2]; Replication number 2)	Cell Viability ([3]; Replication number 1)	Cell Viability ([3]; Replication number 2)
Cc1ccc(-c2ccc3c(ccc4sc5c(c43)NC[C@@H](C)NC5=O)n2)cn1	131.751% and 124.635%	132.52% and 124.216%	114.172% and 105.969%	99.6709% and 79.9055%	108.383% and 98.1185%	106.246% and 104.786%
CCc1cccc(CC)c1NC(=O)c1nn(C)c2c1CCc1cnc(Nc3ccc(C(=O)NC4CCN(C)CC4)cc3OC(F)(F)F)nc1-2	–	–	78.2687% and 77.2947%	115.279% and 90.9735%	41.8512% and 75.8188%	49.725% and 74.2713%
Nc1ccc(C(=O)Nc2cccc(-c3nc(N4CCOCC4)c4oc5ncccc5c4n3)c2)cn1	13.3803% and 32.049%	–	90.7287% and 76.048%	104.901% and 91.2435%	74.5315% and 72.4739%	83.2595% and 89.2407%
O=C1[C@H](Cc2ccc(O)cc2)N2C(=O)CCN(C(=O)NCc3ccccc3)[C@H]2CN1Cc1cccc2ccccc12	96.6982% and 93.2617%	106.282% and 104.195%	80.9835% and 70.711%	121.345% and 94.0767%	89.9628% and 92.2926%	85.8858% and 90.2148%
Cc1cc(C)cc(C(=O)NOCCCCCC(=O)NO)c1	14.9423% and 44.698%	14.9026% and 40.6267%	–	–	190.206% and 106.401%	186.718% and 91.8258%
CCCCNc1ncc(-c2ccc(CN3CCOCC3)cn2)c(N[C@H]2CC[C@H](O)CC2)n1	–	–	13.1667% and 26.0723%	15.6613% and 21.4116%	74.2042% and 87.3045%	78.7125% and 74.949%
CCOC(=O)Nc1cc(-c2ccc(C)c(NS(C)(=O)=O)c2)nn2c(C)nnc12	97.2241% and 83.1141%	52.6014% and 56.6383%	56.4078% and 39.4127%	74.2439% and 53.3101%	101.464% and 109.34%	124.525% and 131.026%
COc1ccccc1-c1cc(Nc2cccc(CS(N)(=O)=O)c2)ncn1	93.0282% and 99.0402%	104.398% and 112.494%	75.7277% and 70.3132%	83.1557% and 105.011%	89.4274% and 95.331%	104.034% and 107.665%
COc1cc(-c2cn(C)c(=O)c3cnccc23)c(OC)cc1CN(C)C	102.497% and 103.651%	129.558% and 87.7058%	64.3431% and 76.9706%	65.7343% and 74.6912%	113.788% and 114.043%	122.408% and 119.749%
Cn1cc(-c2[nH]c3cc(NC(=O)[C@H](N)C4CCCCC4)cc4c3c2C=NNC4=O)cn1	9.563% and 27.3752%	–	70.4366% and 51.3636%	57.165% and 41.3025%	–	–
COc1cc(Nc2ccnc3ccc(Br)cc23)cc(OC)c1OC	–	5.197% and 15.2001%	33.1055% and 56.4229%	29.2651% and 46.0292%	–	–
CN(C)C(=O)/C(C#N)=C/c1ccc(-c2nc3cnc4[nH]ccc4c3n2C2CCCCC2)o1	174.281% and 154.216%	123.709% and 122.376%	104.012% and 103.69%	101.367% and 106.659%	101.13% and 96.3421%	107.991% and 97.4755%
Cn1cc(-c2ccc3occ(-c4ccccc4-c4ccccc4)c3n2)cn1	113.014% and 144.526%	79.1768% and 87.7674%	118.722% and 95.2756%	122.009% and 96.5129%	120.62% and 121.278%	112.27% and 102.009%
Cn1cc(-c2ccc3occ(-c4cccc(-c5ccncc5)c4)c3n2)cn1	105.822% and 114.901%	68.0406% and 107.425%	82.6672% and 85.8718%	87.0318% and 75.2306%	96.3699% and 105.976%	129.888% and 115.611%
CCCCN(CCCC)C(=O)CN1C[C@@H](c2cc(OC)c3c(c2)OCO3)[C@H](C(=O)O)[C@H]1CC(C)(C)CCC.Cl	–	–	42.4098% and 26.0419%	31.2719% and 16.5316%	63.1584% and 74.5149%	47.1745% and 81.1225%
CN(C)C(=O)/C(C#N)=C/c1ccc(-c2nc3cnc4c(ccn4C)c3n2C2CCCCC2)o1	94.8079% and 114.901%	118.022% and 96.0735%	117.89% and 123.735%	132.247% and 113.588%	100.887% and 101.443%	86.9771% and 102.576%
